Source: US10098581B2, “Integrated electrical profiling system for measuring leukocytes activation from whole blood” (Massachusetts Institute of Technology, priority 2014, dated 2018)

Tests used:
Format in all cases: cell-based
[1] = test system: human granulocytes; test: IDS mechanism study of neutrophil activation with chemical inhibitors; details: 10 MHz; 0.5 μM fMLP, 2 μM PMA; 20 minutes stimulation
Procedure: This experiment focuses on the mechanism study of electrical changes during neutrophil activation. The mechanism study aims to help understand which aspect of neutrophil activation iso-dielectric separation is sensitive to. Different inhibitors were added to reduce the effect of membrane ruffling, reactive oxygen species (ROS) generation, and degranulation before activation to decouple the effect of the three factors. FIG. 19 is a schematic diagram illustrating aspects of activation of a neutrophil in response to a stimulus. In membrane ruffling, volume changes occur with advanced activation. Membrane roughness can increase the membrane capacitance. In Reactive Oxygen Species (ROS) generation, cytoplasm conductivity increases. NADPH oxidase is a major cause of the ROS generation. Degranulation occurs during phagocytosis, and lowers cytoplasmic ionic content. The experiment uses chemical inhibitors to block specific aspects of activation to determine the dominant causes of electrical changes. FIG. 20A is a summary of the procedure. Human granulocytes are first isolated from whole blood with a density gradient method, and then were split into six aliquots for different treatment. CytB, CytB+Jasp, CytB+DPI were added for inhibiting membrane ruffling, membrane ruffling and degranulation, membrane ruffling and ROS generation, respectively. The inhibition treatment lasted for ten minutes. […]

[2] = test system: human granulocytes; test: Single-sided iso-dielectric separation (IDS): IDP distributions of PMA-treated vs non-treated granulocytes
Description: In IDS, a heterogeneous population of cells suspended in high conductivity media was loaded into a microfluidic chip. Other inlets containing intermediate and low conductivity media provided a parallel laminar co-flow. This configuration generated a conductivity gradient perpendicular to the main microfluidic channel flow. The channel also had slanted planar electrodes patterned at the bottom (single-sided IDS) or top and bottom (double-sided IDS). An AC electric field applied to the electrodes generated a DEP barrier that guided the cells across the conductivity gradient. Cells escaped the DEP barrier at their isodielectric position (IDP), which is the position where they are at dielectric equilibrium with the surrounding medium. Cells with different effective permittivity (or effective conductivity) escaped at a different IDP resulting in a transverse spatial distribution of cells. A CCD camera near the end of the channel took videos of the cells. Finally, image-processing software detected these cells and computed the resulting IDP distribution (see FIGS. 4a-4d).
To determine the IDP different populations, suspensions (2×10^6 cells/ml) in PBS buffer with a conductivity of 1.2 S/m (PBS, 1% BSA, 1 u Heparin) were used. For the intermediate and low conductivity media, this buffer was mixed with an isotonic sucrose solution to achieve an intermediate conductivity of 0.8 S/m and a low conductivity of 0.4 S/m.
A function generator (Agilent 33220A) and an amplifier applied a 10 Vpp AC field with the same amplitude across all frequencies. A CCD camera at the end of the main channel imaged fluorescently labeled cells flowing across the field of view. An image detection script analyzed the videos to detect cells in each frame and determine the centroid of each cell. The same script generated cell position distributions that correspond to the resulting IDP distribution.
(§1) Human granulocytes were activated with different concentrations of PMA (Phorbol 12-Myristate 13-Acetate, Sigma Aldrich) in a PBS solution with Mg^++ and Ca^++. To activate the cells, a 1:1 solution of suspended cells was mixed with PMA buffer and the resulting suspension was incubated for 20 min at room temperature.
Using a single-sided IDS platform, the IDP distributions of granulocytes treated with 1 μM PMA and a control population of non-treated granulocytes were examined. A 10 Vpp AC voltage was applied to the electrodes with frequencies ranging from 0.5 MHz to 15 MHz. Cells were loaded at 0.4 μl/min and the intermediate and low conductivity buffer at 0.55 μl/min (1.5 μl/min total). To determine the IDP distributions for each frequency, the IDP distributions of at least 1000 cells were recorded, which required an acquisition of about 1.5 min. […]

[3] = test system: human granulocytes; test: Flow cytometry and functional assays of PMA-activated granulocytes; details: different doses of PMA
Procedure: 10 ml samples of heparinized human blood were obtained from healthy donors (Blood Research Components, LLC). Two aliquots of 5 ml of blood were set in 3 ml of Mono-Poly Resolving Medium (MP Biosciences) and the samples were spun in a free hanging centrifuge at 400 cfg for 40 min. The resulting layered samples contained a band of granulocytes that were recovered and triple washed with a PBS solution. Finally, the cells were resuspended in a PBS solution (PBS, 1% BSA, 1 u Heparin).
as §1
Flow cytometry (FC) was performed with a BD Accuri (Becton Dickinson) flow cytometer with a 488 nm and a 670 nm emitter. Granulocytes were gated based on side and forward scatter and stained with anti-human CD11b-PE, anti-human CD66b-PerCP-CY5.5 and anti-human CD18-FITC (Becton Dickinson) as activation indicators. Mouse samples were stained using anti-mouse CD-18 and anti-mouse Ly6G as an activation marker.
The first goal was to confirm that IDS is able to discern IDP differences in activated and non-activated human granulocytes extracted from freshly collected blood. […]

[4] = test system: neutrophils; test: IDP evolution of PMA-treated neutrophils over treatment time; details: normalized IDP vs PMA treatment time in minutes (FIG. 16B)
Description: In another embodiment according to the invention, isodielectric position dynamics can be used to assist with diagnostics. In particular, activation of leukocytes can be tracked with DCFH-DA oxidation. FIG. 16A is a graph of respiratory burst (DCFH-DA oxidation), showing DCF median intensity on the vertical axis, versus PMA (Phorbol 12-Myristate 13-Acetate, Sigma Aldrich) treatment time in minutes (horizontal axis), at different concentrations of PMA. FIG. 16B is a graph of iso-dielectric point (IDP) evolution of PMA-treated neutrophils, showing normalized IDP on the vertical axis versus PMA treatment time in minutes on the horizontal axis.

CSCC[C@H](NC=O)C(=O)N[C@@H](CC(C)C)C(=O)N[C@@H](Cc1ccccc1)C(=O)O [fMLP, N-Formylmethionyl-leucyl-phenylalanine]
IDP shift of stimulated granulocytes (indicating activation) [1]: shifted to the left

CCCCCCCCCCCCCC(=O)O[C@@H]1[C@@H](C)[C@@]2(O)[C@@H](C=C(CO)C[C@]3(O)C(=O)C(C)=C[C@@H]23)[C@@H]2C(C)(C)[C@]12OC(C)=O [PMA, Phorbol 12-Myristate 13-Acetate]
IDP distribution of treated granulocytes vs non-treated control ([2]; 1 μM PMA, as frequency increases (0.5-15 MHz), 10 Vpp): displaced towards higher IDP
peak ROC area-under-the-curve (AUC), IDP as classification threshold ([2]; 1 μM PMA, frequencies 10-15 MHz): 0.62
activation state of neutrophils (IDP profiling) ([2]; 1000 nM PMA): activated
ROC area under the curve, IDP as classification criteria ([2]; PMA treated vs control, above 5 MHz): > 0.6
levels of reactive oxygen species [3]: increased
CD11b and CD18 expression ([3]; 20 min at room temperature): increased
IDP of treated neutrophils versus treatment time [4]: changes over time
IDP shift of stimulated granulocytes (indicating activation) [1]: shifted to the left
